As usually defined, the ED50 is the dose that gives a 50% effect, or the effect in half of the subjects. As usually defined, the Cmax is the peak of the concentration-time curve. A word on the Tmax: it is the time at which the peak concentration occurs. Broadly, the half-life is how long it takes for the measured level to halve. High values mean slow loss, low ones fast loss. In general, AUC(0-inf) refers to total exposure, with the tail of the curve extrapolated. Read a low AUC(0-inf) as less exposure. A word on the clearance: it is the volume of plasma or blood freed of the substance per unit of time. As a reminder, the bioavailability is the share of a dose that reaches the circulation, judged against a reference dose that is usually intravenous.

Data set [1] has as its system convulsive mice induce by MES. As to the kind of experiment: MES (maximum electroshock) induced convulsion model, oral perfusion. Type of data set: in vivo, KM mice. Conditions: for efficacy against MES compared with RTG / ED50: mice; for ED50: Mus musculus, 0.5 h, oral perfusion, MES 30 mins after administration, read-out: ED50 (50% effective dose); for protective effect on convulsive mice induce by MES: orally administered. The text has this:
YLS-9A model physiological pharmaceutical electronic stimulator was used in the experiment to induce convulsion of mice, and specific parameters were set as follows: configuration 8, stimulating voltage: 160V, period of stimulation: 5.4 sec. Healthy KM mice (SPF level, male, body weight: 18 to 22 g) were selected for the experiment. After the ear tip of the mice was sufficiently wetted with physiological saline, the mice was electrically stimulated once with ear clip electrode, and tonic hind-limb seizure was deemed as indication of convulsion. The mice were screened one day before the experiment to weed out the dead mice and the ones without generalized tonic seizure. The qualified mice were caged randomly with access to water at liberty. Before the experiment started, the mice were fasted for 8 h.
The compounds to be tested were freshly formulated on the day of experiment. RTG hydrochloride was dissolved with ultrapure water to obtain a solution with desired concentration. K41.HCl and K43.HCl were formulated with 5% DMSO+95% of 1% Tween80, that is, a proper amount of the compound to be tested was weighted and, first, sufficiently dissolved in 5% DMSO, and then added with a desire volume of 1% Tween80 to be sufficiently suspended to form a suspension with a certain drug concentration. The mice screened one day before were randomly grouped with each group having 10 mice, marked, weighted and then administered with the compound to be tested or solvent (5% DMSO+95% (1% Tween 80)) by oral perfusion with administered volume of 0.2 ml/10 g. The dose range for each compound was 1 to 56 mg/kg for RTG, 1 to 40 mg/kg for K41.HCl, and 0.5 to 4 mg/kg for K43.HCl. 30 mins after administration, MES experiment was performed and the experimental parameters were the same as the above. The number of mice with generalized tonic-clonic convulsion in each group was recorded, the protection rate of each of the compounds to be tested on convulsive mice induce by MES was calculated and dose-response curve for each compound was plotted. The dose-response curve for each compound was obtained according to the analysis of Graphpad Prism 5 software, as shown in FIG. 3.

The test system of data set [2] is motor coordination ability of mice. The experiment in a line: Rotarod experiment, motor coordination ability (acute neurotoxicity). The format is in vivo, KM mice. The note with it: for P.I (Protective index)=TD50/ED50: TD50 Rotarod / ED50 MES. The protocol:
YLS-4C Rotarod system was used in the experiment, wherein the diameter of the rod was 3 cm and the rotate speed was set at 6 rpm. Healthy KM mice (SPF level) were selected, wherein male and female were equal, the body weight was 18 to 22 g. One day before experiment, the mice were place on the rotarod for training and screening. The tail tip of mice was held to make them creep on the rotarod during the training. […] The mice that jumped on the rotarod or griped the rotarod were weed out. In addition, three time periods were set with 1 min for each. […] The qualified mice were randomly caged according to the gender, and allowed to eat and drink freely.
On the day of the experiment, each compound to be tested was freshly formulated by the same method as described in MES experiment. If the compound was not sufficiently suspended, the suspension was further mixed by ultrasonication for 20 min so as to make the compound sufficiently suspended. […] 30 mins after administration, Rotarod experiment was performed and the experiment parameters were the same as the above. The number of mice that fell off from the rorarod was recorded, and the influence of each compound on motor coordination ability of mice was analyzed. The curve for dose of each compound verse motor deficit (percentage) of mice for each compound was obtained according to the analysis of Graphpad Prism 5 software and was shown in FIG. 4.
Background: The rotarod test checks motor coordination on a turning rod.

The nature of data set [3]: Pharmacokinetics and distribution in brain tissue in mice. Type of data set: in vivo, ICR mice. The note with it: for Kp: brain/plasma, read-out: AUC0-t ratio (brain/plasma); for Kp / Cmax / Tmax / half-life / MRT inf / AUC(0-inf) / AUC0-t / clearance / Vd / AUC0-∞: mice; for MRT inf: read-out: MRT0-∞; for Vd: read-out: Vss; for bioavailability: oral, ICR mice, intragastric perfusion 5 mg/kg vs intravenous 2 mg/kg, read-out: F (oral bioavailability). The protocol:
K43.HCl was formulated to a 0.5 mg/ml solution for intragastric perfusion by using 5% DMSO/5% Tween80/[…] physiological saline; to a 0.2 mg/ml solution for intravenous injection by diluting the above solution for intragastric perfusion with physical saline containing 1% Tween 80.
84 healthy ICR mice (male, body weight, 18-20 g) were fasted for 8 h with access to water at liberty before the experiment. The mice were fed at the same time 2 h after administration of the compound.
After administration by intragastric perfusion, mice were sacrificed by cutting abdominal aorta at the time points set as the above with 3 mice for each time point. 0.5 mL of whole blood was collected for each animal, placed into a heparinized test tube and subjected to centrifugation at 11000 rpm for 5 min to separate plasma, which was then cryopreserved in a −20° C. refrigerator. After the animal was sacrificed, its whole brain was collected, washed with ice-cooled physiological saline to remove residual blood, absorbed to dryness, labeled and cryopreserved in a −20° C. refrigerator. After administration by intravenous injection, 0.5 mL of venous blood was collected from venous plexus behind eyeball, placed into a heparinized test tube and subjected to centrifugation at 11000 rpm for 5 min to separate plasma, which was then cryopreserved in a −20° C. refrigerator. The concentration of each compound in plasma and brain tissue was determined by LC-MS/MS.
Pharmacokinetic parameters after administration were calculated according to the obtained data of plasma concentration, using the non-compartmental model of Phoenix 1.3 software (Pharsight Co., USA).

Where [4] appears, read: male, ICR, mouse, po, intragastric perfusion 5 mg/kg.
Setting [5] is: male, ICR, mouse, po, intragastric perfusion 5 mg/kg, brain.
Setting [6] is: male, ICR, mouse, po, intragastric perfusion 5 mg/kg, plasma.
Where [7] appears, read: male, ICR, mouse, po, intragastric perfusion 5 mg/kg, plasma, read-out: AUC0-t.
The mark [8] stands for this setting: male, ICR, mouse, intravenous injection 2 mg/kg, plasma.
Where [9] appears, read: male, ICR, mouse, intravenous injection 2 mg/kg, plasma, read-out: AUC0-t.
[10] abbreviates: intragastric perfusion 5 mg/kg, brain.

Entries after “also recorded” stand apart in the source; their conditions may differ. Structures can show the parent of a compound that is named as a salt. Where two headings read alike, the source gives them in different places.

Regarding `C#CCN(Cc1ccc(F)cc1)c1cc(C)c(NC(=O)OC)c(C)c1` [Compound K43, methyl 4-(N-parafluorobenzyl-N-propargyl-amino)-2,6-dimethylphenylaminoformate], in data set [1], the “efficacy against MES compared with RTG” value is reported as “higher than that of RTG; also recorded: superior to that of RTG”. In addition, the “neurotoxicity compared with RTG” value in data set [2] is recorded as “weaker neurotoxicity than RTG”. Besides, in data set [3] (setting [4]), the Kp is no less than 7.

For `C#CCN(Cc1ccc(F)cc1)c1ccc(NC(=O)OC)c(C)c1` [K41•HCl], in data set [1], the ED50 turned out to be 4.8 mg/kg and the “protective effect on convulsive mice induce by MES” value is on record as “dose dependent protective effect”. Also, in data set [1] (listed as K31), the “efficacy against MES compared with RTG” value is “higher than that of RTG”. Also, the “efficacy against MES compared with RTG” value in data set [1] (listed as k41) is “superior to that of RTG”. For the same compound, in data set [2], the “neurotoxicity compared with RTG” value is “weaker neurotoxicity than RTG” and the “P.I (Protective index)=TD50/ED50” value was 21.54. Moreover, in data set [3] (setting [4]), the Kp is 2.6. In data set [3] (setting [5]), the Cmax came out at 1470 ng/g, the time of peak concentration (Tmax) came to 15 min, the half-life is 37.8 min and the MRT inf stood at 66 min. Also, in data set [3] (setting [6]), the AUC(0-inf) was 654 ng·h/mL, the Cmax worked out at 606 ng/mL, the Tmax came out at 15 min and the half-life was 38.4 min. For the same compound, in data set [3] (setting [6]), the MRT inf was determined as 62.4 min. The AUC0-t in data set [3] (setting [7]) is 646 ng·h/mL. For the same compound, in data set [3] (setting [8]), the AUC(0-inf) was 294 ng·h/mL, the clearance is 114 mL/min/kg, the half-life is 29.4 min and the MRT inf is 27 min. Also, in data set [3] (setting [8]), the Vd stood at 3.04 L/kg. Besides, the AUC0-t in data set [3] (setting [9]) is 281 ng·h/mL. In data set [3] (male, mouse, plasma), the bioavailability is 91.9%. Also, in data set [3] (setting [10]), the AUC0-t was found to be 1680 ng·h/g and the “AUC0-∞” value was 1684 ng·h/g.

With `C#CCN(Cc1ccc(F)cc1)c1cc(C)c(NC(=O)OC)c(C)c1.Cl` [K43•HCl, methyl 4-(N-parafluorobenzyl-N-propargyl-amino)-2,6-dimethylphenylaminoformate hydrochloride], in data set [1], the ED50 stood at 1.6 mg/kg and the “protective effect on convulsive mice induce by MES” value is recorded as “dose dependent protective effect”. For the same compound, the “P.I (Protective index)=TD50/ED50” value in data set [2] came to 95.25. The Kp in data set [3] (setting [4]) was 7.2. In data set [3] (setting [5]), the Cmax was found to be 1430 ng/g, the Tmax stood at 15 min, the half-life is 63.6 min and the MRT inf turned out to be 77.4 min. In data set [3] (setting [6]), the AUC(0-inf) worked out at 189 ng·h/mL, the Cmax was found to be 350 ng/mL, the Tmax amounted to 15 min and the half-life was 37.2 min. Moreover, the MRT inf in data set [3] (setting [6]) was determined as 56.4 min. The AUC0-t in data set [3] (setting [7]) stood at 184 ng·h/mL. In data set [3] (setting [8]), the AUC(0-inf) turned out to be 334 ng·h/mL, the clearance is 100 mL/min/kg, the half-life was 24 min and the MRT inf was determined as 25.8 min. The Vd in data set [3] (setting [8]) was 2.61 L/kg. The AUC0-t in data set [3] (setting [9]) stood at 326 ng·h/mL. In addition, the bioavailability in data set [3] (male, mouse, plasma) was found to be 22.5%. Besides, in data set [3] (setting [10]), the AUC0-t stood at 1329 ng·h/g and the “AUC0-∞” value amounted to 1346 ng·h/g.
